In article PMC10439952, “JT002, a small molecule inhibitor of the NLRP3 inflammasome for the treatment of autoinflammatory disorders” (Scientific Reports, 2023):

Target: NLRP3 inflammasome (Mus musculus, UniProt Q8R4B8)
Test: Inhibition of IL-1β production in mouse BMDMs stimulated by LPS + ATP
Assay type: cell-based
Design: host or cells: mouse PBMCs; mouse bone-marrow derived macrophages; mouse whole blood (C57BL/6 in the ex vivo study)
Conditions: Mouse BMDM, read-out: Geo Av IC50, IL-1β
Method: Inflammasome activation and whole blood assays were essentially carried out as described earlier. Details can be found in the supplementary information section accompanying this publication. A protocol for blood draws from healthy volunteers and use of the blood in preclinical assays was approved by Western Institutional Review Board, Inc (Puyallup, WA, USA). Informed consent was obtained from each donor prior to the first blood draw.
Cell viability was determined by addition of an equal volume of CellTiter-Glo® 2.0 reagent (Promega) to the remaining cells/supernatant in each well. Intracellular Caspase-1 activity was measured using the Caspase-Glo® assay (Promega) according to the manufacturer’s instructions. The biochemical capsase-1 assay was conducted at Reaction Biology Corporation (Malvern, USA). Human IL-1β, IL-1α, and TNFα and mouse IL-1β were measured in cell culture supernatants using homogeneous time resolved fluorescence assay kits (HTRF, Cisbio, Codolet, France). Human IL-18 was measured in cell culture supernatants using an ELISA kit (R&D Systems, Minneapolis, MN, USA). Plasma IL-1β concentrations were determined by Quantikine® ELISA (R&D Systems, Minneapolis, MN).
4H). MS: m/z 433.1 (M+H+). […]

Sequence of NLRP3 inflammasome (Q8R4B8 whole entry): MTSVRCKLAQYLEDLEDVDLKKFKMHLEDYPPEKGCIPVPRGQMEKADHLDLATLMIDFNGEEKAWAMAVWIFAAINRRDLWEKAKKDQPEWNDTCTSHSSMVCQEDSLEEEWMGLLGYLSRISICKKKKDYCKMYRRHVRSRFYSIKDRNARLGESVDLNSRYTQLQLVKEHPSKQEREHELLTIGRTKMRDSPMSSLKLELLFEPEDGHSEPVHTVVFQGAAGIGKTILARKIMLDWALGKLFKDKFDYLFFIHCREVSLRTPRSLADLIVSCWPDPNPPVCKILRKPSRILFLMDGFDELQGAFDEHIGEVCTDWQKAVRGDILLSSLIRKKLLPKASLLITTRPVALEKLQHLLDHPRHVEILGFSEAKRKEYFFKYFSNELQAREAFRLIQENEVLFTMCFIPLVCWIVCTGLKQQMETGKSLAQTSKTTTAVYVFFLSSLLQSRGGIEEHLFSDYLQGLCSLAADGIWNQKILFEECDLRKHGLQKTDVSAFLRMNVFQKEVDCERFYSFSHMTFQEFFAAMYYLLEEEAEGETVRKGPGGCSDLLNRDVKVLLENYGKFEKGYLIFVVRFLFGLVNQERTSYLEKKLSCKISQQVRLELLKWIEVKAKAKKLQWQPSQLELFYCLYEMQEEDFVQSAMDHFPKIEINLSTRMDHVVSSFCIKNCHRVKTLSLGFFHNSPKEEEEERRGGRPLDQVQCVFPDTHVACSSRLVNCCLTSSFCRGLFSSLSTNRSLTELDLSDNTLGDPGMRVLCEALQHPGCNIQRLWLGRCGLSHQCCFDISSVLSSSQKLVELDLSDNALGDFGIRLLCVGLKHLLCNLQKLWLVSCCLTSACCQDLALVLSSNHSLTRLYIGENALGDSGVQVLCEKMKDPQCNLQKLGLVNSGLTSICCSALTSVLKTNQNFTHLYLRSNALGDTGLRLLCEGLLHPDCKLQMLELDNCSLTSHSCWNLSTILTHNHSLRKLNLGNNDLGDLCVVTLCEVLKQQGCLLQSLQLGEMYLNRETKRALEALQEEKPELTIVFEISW

`CO[C@@H]1COc2c(S(=O)(=O)NC(=O)Nc3c4c(cc5c3CCC5)CCC4)cnn2C1` [JT002] showed an IC50 of 5 nM.
